{"source": "paper PMC9143527", "about": "“A Novel Strategy for Regulating mRNA’s Degradation via Interfering the AUF1’s Binding to mRNA” (Molecules, 2022)", "key": {"AUF1 (endogenous, CETSA)": {"molecular_target": "T1, AUF1 (endogenous, CETSA) (Homo sapiens, UniProt Q14103)", "T1 construct": "gene HNRNPD; endogenous AUF1 in intact cells, detected by Western blot", "T1 sequence (Q14103 2-355)": "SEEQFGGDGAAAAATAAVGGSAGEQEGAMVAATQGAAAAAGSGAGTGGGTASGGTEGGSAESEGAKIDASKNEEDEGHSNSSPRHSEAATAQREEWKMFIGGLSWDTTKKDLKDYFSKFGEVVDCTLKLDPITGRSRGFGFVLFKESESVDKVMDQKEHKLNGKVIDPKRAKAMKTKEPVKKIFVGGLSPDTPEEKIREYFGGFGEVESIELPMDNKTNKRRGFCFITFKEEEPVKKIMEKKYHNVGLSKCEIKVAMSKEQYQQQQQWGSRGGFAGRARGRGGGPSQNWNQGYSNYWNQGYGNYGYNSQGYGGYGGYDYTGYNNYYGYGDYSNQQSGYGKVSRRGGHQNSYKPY", "assay": "CETSA, Western blot", "assay_type": "cell-based", "conditions": "HepG2, SK-MEL-2, HCT-116 cells; 1 h treatment at 1, 3.5 or 6 uM"}, "p37AUF1 (AUF1, hnRNP D) [1]": {"molecular_target": "T2, p37AUF1 (AUF1, hnRNP D) (Homo sapiens, UniProt Q14103)", "T2 construct": "gene HNRNPD; recombinant purified p37 isoform; expression details and tags only in supplement", "T2 sequence (Q14103 2-287 isoform Q14103-4)": "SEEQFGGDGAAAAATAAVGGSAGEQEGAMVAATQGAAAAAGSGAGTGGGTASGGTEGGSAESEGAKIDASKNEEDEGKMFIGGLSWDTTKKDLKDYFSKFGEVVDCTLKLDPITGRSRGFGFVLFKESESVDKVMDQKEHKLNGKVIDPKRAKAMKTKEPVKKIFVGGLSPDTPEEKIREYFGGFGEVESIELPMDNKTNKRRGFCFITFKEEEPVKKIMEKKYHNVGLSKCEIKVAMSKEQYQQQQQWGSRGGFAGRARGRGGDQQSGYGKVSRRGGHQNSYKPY", "assay": "REMSA, inhibition of AUF1-RNA complex formation", "assay_type": "binding", "conditions": "750 nM AUF1, 250 nM FAM-labelled TNF ARE RNA; 10 mM Tris-HCl pH 8.0, 50 mM KCl, 2 mM DTT, 0.5 mM EDTA; on ice"}, "p37AUF1 (AUF1, hnRNP D) [2]": {"molecular_target": "T2, p37AUF1 (AUF1, hnRNP D)", "assay": "SPR (Biacore 8K, CM5 chip, amine coupling)", "assay_type": "binding", "conditions": "20 mM PB pH 7.4 at immobilization; 5% DMSO; compound at 0-80 uM"}}}
{"smiles": "Nc1nc(Nc2ccc(S(N)(=O)=O)cc2)nn1C(=O)c1c(F)cccc1F", "note": "[JNJ-7706621]", "values": [{"measurement": "Tm", "setting": "AUF1 (endogenous, CETSA)", "value": "The melting temperature fitted from the curve in each cell decreased when treated with JNJ-7706621"}, {"measurement": "REMSA, inhibition of AUF1-RNA complex formation", "setting": "p37AUF1 (AUF1, hnRNP D) [1]", "value": "After adding increasing JNJ-7706621, the bands representing RNA-AUF1 complex weakened"}, {"measurement": "SPR (Biacore 8K, CM5 chip, amine coupling)", "setting": "p37AUF1 (AUF1, hnRNP D) [2]", "value": "only one compound, JNJ-7706621, showed a typical binding curve shape"}]}
